4 molecules from patent publication US7935722B2 (Eli Lilly and Company, priority 2005, dated 2011) can be followed below.

The target of data set [1] is T1, human androgen receptor (AR) (Homo sapiens, UniProt P10275).
T1 construct: expressed in transfected cells; host or cells: mouse myoblast C2C12 cells, transiently co-transfected
T1 sequence (P10275 1-920): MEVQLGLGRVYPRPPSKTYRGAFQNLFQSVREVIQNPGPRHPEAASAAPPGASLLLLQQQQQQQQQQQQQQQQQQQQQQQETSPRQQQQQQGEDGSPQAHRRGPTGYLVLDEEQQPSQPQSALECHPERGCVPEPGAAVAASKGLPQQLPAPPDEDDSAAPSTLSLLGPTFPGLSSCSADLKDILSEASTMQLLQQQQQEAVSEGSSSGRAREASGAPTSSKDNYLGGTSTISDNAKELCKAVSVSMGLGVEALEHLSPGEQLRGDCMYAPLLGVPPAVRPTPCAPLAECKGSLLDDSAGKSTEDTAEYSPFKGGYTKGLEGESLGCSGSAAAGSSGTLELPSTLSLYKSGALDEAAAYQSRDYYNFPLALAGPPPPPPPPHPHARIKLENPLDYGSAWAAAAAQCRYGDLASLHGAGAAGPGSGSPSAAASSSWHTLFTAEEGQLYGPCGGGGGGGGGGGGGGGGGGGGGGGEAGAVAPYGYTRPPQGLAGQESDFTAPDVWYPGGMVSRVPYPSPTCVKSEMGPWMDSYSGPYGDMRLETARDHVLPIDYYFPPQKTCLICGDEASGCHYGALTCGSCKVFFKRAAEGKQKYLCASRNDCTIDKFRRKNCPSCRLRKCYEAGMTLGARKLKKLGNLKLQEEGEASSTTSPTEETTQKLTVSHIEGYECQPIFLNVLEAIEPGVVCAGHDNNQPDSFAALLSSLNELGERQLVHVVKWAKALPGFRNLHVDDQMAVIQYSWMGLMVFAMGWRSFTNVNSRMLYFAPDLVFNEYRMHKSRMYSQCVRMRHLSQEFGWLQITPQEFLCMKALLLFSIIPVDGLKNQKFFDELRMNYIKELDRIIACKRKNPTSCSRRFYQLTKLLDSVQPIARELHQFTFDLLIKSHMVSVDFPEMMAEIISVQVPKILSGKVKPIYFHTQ
The data set is described as follows: C2C12 AR/ARE reporter assay. The data set is classed as cell-based. The settings on record: for Emax: C2C12, read-out: C2C12 % Efficacy. Summed up:
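Mouse C2C12 myoblasts co-transfected with AR/ARE reporter were plated in charcoal-stripped serum and treated for 48 h with compound from about 0.01 nM to 10 μM. Luciferase activity gave EC50 by 4-parameter logistic fit. Efficacy is expressed as % of maximal stimulation by 10 nM methyltrienolone.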

For data set [2], the target named is T2, human AR (androgen receptor) (Homo sapiens, UniProt P10275).
T2 construct: expressed in transfected cells; host or cells: 293 cells (293-AR lysate)
T2 sequence (P10275 1-920): T1 sequence (P10275 1-920)
As to the kind of experiment: Steroid hormone nuclear receptor binding assay, AR binding. In a few lines: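 Competition binding with lysates of 293 cells overexpressing human AR, [3H]-methyltrienolone tracer, compounds from about 0.01 nM to 10 μM, overnight at 4 °C; non-specific binding set with 500 nM methyltrienolone. Bound tracer counted by scintillation after charcoal-dextran separation; IC50 converted to Ki by Cheng-Prusoff using Kd from saturation binding.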

What is called melting point is the temperature of the solid-liquid transition. In general, EC50 refers to the concentration giving half of the maximal effect. Low readings indicate an effect from little substance, high ones a need for much substance. The Ki is a dissociation constant, usually derived from enzyme kinetics or from competition with a known ligand. Read a low Ki as a stronger hold on the target. `CO/N=C/c1ccc2c(c1)c1c(n2Cc2ccccn2)CC[C@@H](NC(=O)C2CC2)C1` [Example 208, (R)-Cyclopropanecarboxylic acid[6-(1-methoxyimino-methyl)-9-pyridin-2-ylmethyl-2,3,4,9-tetrahydro-1H-carbazol-3-yl]-amide] yielded a melting point of 215 to 217 °C. Moreover, in data set [1], the EC50 worked out at 3.8 nM and the Emax was 96.3%. This molecule also registered a Ki in data set [2] of 21.1 nM.

The molecule `N#Cc1ccc2c(c1)c1c(n2Cc2ccccn2)CC[C@@H](NC(=O)C2CC2)C1` [Example 196, Cyclopropanecarboxylic acid[6-cyano-9-(pyridin-2-ylmethyl)-2,3,4,9-tetrahydro-1H-carbazol-3-yl]-amide] yielded a melting point of 239 to 241 °C. In data set [1], it took 15.3 nM to reach a half-maximal effect (EC50) and the Emax came out at 95.2%. The inhibitory constant (Ki) in data set [2] stood at 16.1 nM.

On to `CC(C)C(=O)NC1CCc2c(c3cc(Br)ccc3n2Cc2ccc(Cl)cc2)C1` (stereo not shown) [Example 40], for which the melting point lay within 142 to 149 °C. In data set [1], a half-maximal response (EC50) required 188 nM and the Emax was 68%. In data set [2], this molecule yielded a Ki of 30.9 nM.

Molecule `COc1cccc(Cn2c3c(c4cc(Br)ccc42)CC(NC(=O)C(C)C)CC3)c1` (stereo not shown) [Example 37] returned a melting point of 176 to 180 °C. Besides, in data set [1], the concentration for a half-maximal effect (EC50) worked out at 109 nM and the Emax turned out to be 95.5%. The same molecule yielded an inhibition constant (Ki) in data set [2] of 9.1 nM.
